± gives the uncertainty stated by the source.
Assay: xn = mol fraction of the nth substance listed

CCC[N+](C)(C)C.O=S(=O)([N-]S(=O)(=O)C(F)(F)F)C(F)(F)F + CCC[N+]1(C)CCCC1.O=S(=O)([N-]S(=O)(=O)C(F)(F)F)C(F)(F)F
viscosity [mPa·s], 101.3 kPa
Details | x1 = 0.2 | x1 = 0.4 | x1 = 0.6 | x1 = 0.8
293.15 K | 78.4 ± 16 | 81.2 ± 16 | 88.3 ± 18 | 93.6 ± 19
298.15 K | 62.8 ± 13 | 64.9 ± 13 | – | 73.8 ± 15
303.15 K | 51.1 ± 10 | 52.5 ± 10 | 56.3 ± 11 | 59.2 ± 12

CCC[N+](C)(C)C.O=S(=O)([N-]S(=O)(=O)C(F)(F)F)C(F)(F)F + CCC[N+]1(C)CCCCC1.O=S(=O)([N-]S(=O)(=O)C(F)(F)F)C(F)(F)F
101.3 kPa
Details | viscosity [mPa·s]
298.15 K, x1 = 0.8 | 88.1 ± 18
303.15 K, x1 = 0.8 | 69.7 ± 14
308.15 K, x1 = 0.2 | 78.3 ± 16
308.15 K, x1 = 0.6 | 63.6 ± 13
308.15 K, x1 = 0.8 | 56.2 ± 11
313.15 K, x1 = 0.2 | 62.4 ± 12
313.15 K, x1 = 0.4 | 56.9 ± 11
313.15 K, x1 = 0.6 | 51.5 ± 10
318.15 K, x1 = 0.2 | 50.5 ± 10

C1CCC2=[NH+]CCCN2CC1.c1c[n-]cn1 + CCO
298.15 K, 100 kPa
Details | viscosity [mPa·s]
x1 = 0.0998 | 1.95 ± 0.081
x1 = 0.1996 | 3.268 ± 0.14
x1 = 0.2995 | 5.15 ± 0.21
x1 = 0.3994 | 7.752 ± 0.32
x1 = 0.4994 | 10.78 ± 0.45
x1 = 0.5994 | 14.23 ± 0.6
x1 = 0.6995 | 19.14 ± 0.81
x1 = 0.7996 | 23.96 ± 1
x1 = 0.8998 | 28.78 ± 1.2

CC(=O)O + CCO
298.15 K, 101.33 kPa
Details | viscosity [mPa·s]
x2 = 0.0808 | 1.246 ± 0.012
x2 = 0.2919 | 1.327 ± 0.013
x2 = 0.3542 | 1.335 ± 0.013
x2 = 0.5697 | 1.24 ± 0.012
x2 = 0.6571 | 1.195 ± 0.012
x2 = 0.75 | 1.15 ± 0.011

CCC(=O)[O-].CC[NH+]1CCNCC1 + CCO
Details | viscosity [mPa·s]
298.15 K, 101 kPa, x2 = 0.3033 | 75.85 ± 1.4

ClCCCl + CCO
viscosity [mPa·s], 101 kPa
Details | 303.15 K | 313.15 K | 323.15 K
x1 = 0.1495 | 0.842 ± 0.084 | – | –
x1 = 0.3026 | 0.736 ± 0.074 | – | –
x1 = 0.4507 | 0.681 ± 0.068 | – | –
x1 = 0.6007 | 0.662 ± 0.066 | – | –
x1 = 0.752 | 0.659 ± 0.066 | – | –
x1 = 0.8706 | 0.659 ± 0.066 | – | –
x2 = 0.064 | 0.6974 ± 0.018 | 0.6126 ± 0.017 | 0.5529 ± 0.016
x2 = 0.1215 | 0.6779 ± 0.018 | 0.5938 ± 0.017 | 0.5336 ± 0.016
x2 = 0.2295 | 0.6654 ± 0.018 | 0.5787 ± 0.017 | 0.512 ± 0.016
x2 = 0.3279 | 0.6668 ± 0.017 | 0.5767 ± 0.016 | 0.5115 ± 0.016
x2 = 0.3912 | 0.6702 ± 0.017 | 0.5806 ± 0.016 | 0.5107 ± 0.016
x2 = 0.4726 | 0.6873 ± 0.018 | 0.5896 ± 0.016 | 0.5161 ± 0.016
x2 = 0.5989 | 0.7253 ± 0.018 | 0.6178 ± 0.017 | 0.536 ± 0.016
x2 = 0.752 | 0.7907 ± 0.018 | 0.6671 ± 0.017 | 0.5723 ± 0.016
x2 = 0.8819 | 0.8746 ± 0.019 | 0.7374 ± 0.018 | 0.628 ± 0.017

ClCCl + CCO
303.15 K, 101.3 kPa
Details | viscosity [mPa·s]
x2 = 0.0625 | 0.395 ± 0.011
x2 = 0.1074 | 0.398 ± 0.011
x2 = 0.1915 | 0.4103 ± 0.011
x2 = 0.2935 | 0.4387 ± 0.012
x2 = 0.4162 | 0.4914 ± 0.013
x2 = 0.5331 | 0.5595 ± 0.015
x2 = 0.6811 | 0.6721 ± 0.018
x2 = 0.7823 | 0.767 ± 0.02
x2 = 0.8482 | 0.8337 ± 0.022
x2 = 0.9067 | 0.8949 ± 0.024
x2 = 0.9571 | 0.9476 ± 0.025

CC(=O)O + CCOC(C)=O
viscosity [mPa·s], 101 kPa
Details | 298.15 K | 313.15 K
x1 = 0.1049 | 0.459 ± 0.012 | –
x1 = 0.207 | 0.4949 ± 0.013 | –
x1 = 0.3037 | 0.5331 ± 0.014 | –
x1 = 0.399 | 0.5762 ± 0.015 | –
x1 = 0.4985 | 0.6289 ± 0.017 | –
x1 = 0.5996 | 0.689 ± 0.018 | –
x1 = 0.6988 | 0.7668 ± 0.02 | –
x1 = 0.8011 | 0.859 ± 0.023 | –
x1 = 0.8742 | 0.943 ± 0.025 | –
x2 = 0.102 | 0.97 ± 0.01 | 0.791 ± 0.008
x2 = 0.2035 | 0.867 ± 0.009 | 0.707 ± 0.007
x2 = 0.3037 | 0.771 ± 0.008 | 0.634 ± 0.006
x2 = 0.4101 | 0.697 ± 0.007 | 0.579 ± 0.006
x2 = 0.4979 | 0.644 ± 0.007 | 0.538 ± 0.006
x2 = 0.6006 | 0.582 ± 0.006 | 0.488 ± 0.005
x2 = 0.6962 | 0.543 ± 0.006 | 0.454 ± 0.005
x2 = 0.7971 | 0.499 ± 0.005 | 0.419 ± 0.005
x2 = 0.9048 | 0.46 ± 0.005 | 0.388 ± 0.004

ClCCCl + CCOC(C)=O
303.15 K, 101.3 kPa
Details | viscosity [mPa·s]
x2 = 0.099 | 0.679 ± 0.006
x2 = 0.2036 | 0.6354 ± 0.0058
x2 = 0.3005 | 0.602 ± 0.0056
x2 = 0.3976 | 0.5686 ± 0.0055
x2 = 0.4996 | 0.5353 ± 0.0054
x2 = 0.6025 | 0.5057 ± 0.0052
x2 = 0.6983 | 0.4784 ± 0.0052
x2 = 0.7998 | 0.4505 ± 0.0051
x2 = 0.9034 | 0.4236 ± 0.005

C1CCC2=[NH+]CCCN2CC1.c1c[n-]cn1 + CN(C)C=O
298.15 K, 100 kPa
Details | viscosity [mPa·s]
x1 = 0.0998 | 1.496 ± 0.062
x1 = 0.1996 | 2.353 ± 0.097
x1 = 0.2995 | 3.64 ± 0.15
x1 = 0.3994 | 5.34 ± 0.22
x1 = 0.4994 | 7.345 ± 0.31
x1 = 0.5994 | 10.26 ± 0.43
x1 = 0.6995 | 14.27 ± 0.6
x1 = 0.7996 | 19.37 ± 0.82
x1 = 0.8998 | 25.32 ± 1.1

ClCCCl + CO
viscosity [mPa·s], 101 kPa
Details | x2 = 0.1568 | x2 = 0.2369 | x2 = 0.4217 | x2 = 0.5374 | x2 = 0.6221 | x2 = 0.6906 | x2 = 0.7982 | x2 = 0.8393 | x2 = 0.912
303.15 K | 0.6585 ± 0.018 | 0.6407 ± 0.017 | 0.6125 ± 0.017 | 0.6032 ± 0.016 | 0.5936 ± 0.016 | 0.5824 ± 0.016 | 0.5696 ± 0.016 | 0.5617 ± 0.016 | 0.5488 ± 0.016
313.15 K | 0.5772 ± 0.017 | 0.5596 ± 0.016 | 0.5318 ± 0.016 | 0.5227 ± 0.015 | 0.5094 ± 0.015 | 0.5005 ± 0.015 | 0.4915 ± 0.015 | 0.4852 ± 0.015 | 0.4762 ± 0.015
323.15 K | 0.5169 ± 0.016 | 0.499 ± 0.015 | 0.4709 ± 0.015 | 0.4587 ± 0.015 | 0.4506 ± 0.015 | 0.4422 ± 0.015 | 0.4323 ± 0.014 | 0.4255 ± 0.014 | 0.4199 ± 0.014
